Measured values reported in US9707244B2, “Compositions and methods for treating conditions that affect epidermis” (Gencia Corporation, priority 2013, dated 2017).

Key:
[1] = system: ARPE-19 cells, a retinal pigmented epithelial cell line; assay: XF24 oxygen consumption in senescent ARPE-19 cells; assay type: cell-based, human; settings: twenty-four hours after treatment; increasing concentrations
Description: In the present invention ARPE-19 cells were used to evaluate whether Mitocreatine improves mitochondrial parameters and reduces ROS in a cell model of AMD. The cells were prematurely senescenced according to the protocol of Glotin et al. (2008). […] Cells were plated in a XF24 (Seahorse Biosciences) plate for analysis of mitochondrial activities. Twenty-four hours before analysis in the XF24 instrument, cells were treated with increasing concentrations on mitocreatine and vehicle. Twenty-four hours after treatment basal oxygen consumption rates (OCR) were assayed. […] Cells were plated in a XF24 (Seahorse Biosciences) plate for analysis of mitochondrial activities. Twenty-four hours before analysis in the XF24 instrument, cells were treated with increasing concentrations on mitocreatine and vehicle. Twenty-four hours after treatment FCCP-stimulated oxygen consumption rates (maximal OCR) were assayed.

[2] = system: ARPE-19 cells, a retinal pigmented epithelial cell line; assay: DCFDA ROS production in senescent ARPE-19 cells; assay type: cell-based, human; settings: forty-eight hours after treatment; increasing concentrations
Description: In the present invention ARPE-19 cells were used to evaluate whether Mitocreatine improves mitochondrial parameters and reduces ROS in a cell model of AMD. The cells were prematurely senescenced according to the protocol of Glotin et al. (2008). ARPE-19 cells, a retinal pigmented epithelial cell line, were prematurely senesced according to the protocol of Glotin et al. (2008). Cells were plated in a 96 well plate for analysis of reactive oxygen species (ROS) production using DCFDA, a fluorogenic dye that is oxidized by hydroxyl, peroxyl and other ROS.

CN(CC(=O)NCCC[P+](c1ccccc1)(c1ccccc1)c1ccccc1)C(=N)N.Cl.[Cl-] [Mitocreatine, N^2-[ammonio(imino)methyl]-N^2-methyl-N-[3-(triphenylphosphonio)propyl] glycinamide dichloride]
basal oxygen consumption [1]: dose-dependent increase | maximal oxygen consumption (FCCP-stimulated) [1]: dose-dependent increase | ROS production [2]: dose-independent decrease
